Where “and” joins values, the source holds several entries; their conditions need not be identical. Identical values can stand only once.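 Values below derive from 48-hour exposures of cells grown in 96-well plates, with endpoints linearly interpolated between the two concentrations bracketing the appropriate inhibition level. Here, GI50 denotes the concentration required for 50% inhibition of growth. Definition used: TGI = concentration required for complete inhibition of growth.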
Tests used:
Assay in all cases: DTP human tumour cell line panel, 48 h
RXF 393 renal = system: RXF 393 renal
MOLT-4 leukemia = system: MOLT-4 leukemia
OVCAR-3 ovarian = system: OVCAR-3 ovarian
SR leukemia = system: SR leukemia
HT29 colon = system: HT29 colon
BT-549 breast = system: BT-549 breast
SNB-19 CNS = system: SNB-19 CNS
HL-60(TB) leukemia = system: HL-60(TB) leukemia
SW-620 colon = system: SW-620 colon
OVCAR-8 ovarian = system: OVCAR-8 ovarian

SMILES	GI50 (RXF 393 renal) [µM]	TGI (RXF 393 renal)	GI50 (MOLT-4 leukemia) [µM]	TGI (MOLT-4 leukemia)	GI50 (OVCAR-3 ovarian) [µM]	TGI (OVCAR-3 ovarian)	GI50 (SR leukemia) [µM]	TGI (SR leukemia)	GI50 (HT29 colon) [µM]	TGI (HT29 colon) [µM]	GI50 (BT-549 breast) [µM]	TGI (BT-549 breast) [µM]	GI50 (SNB-19 CNS) [µM]	TGI (SNB-19 CNS)	GI50 (HL-60(TB) leukemia) [µM]	TGI (HL-60(TB) leukemia)	GI50 (SW-620 colon) [µM]	TGI (SW-620 colon)	GI50 (OVCAR-8 ovarian) [µM]	TGI (OVCAR-8 ovarian) [µM]
CC/C(=C(/c1ccc(Cl)cc1)c1ccc(OCCCN(C)C)cc1)c1ccc(OC)cc1	1.16	3.45 µM	1.05	2.53 µM	3.27	10.5 µM	0.983	2.27 µM	1.06	2.42	1.13	2.89	1.88	5.78 µM	1.15	2.84 µM	1.16	2.96 µM	8.05	17.6
O=C(Nc1ccc(-n2cc(-c3ccncc3)c(-c3ccc(Cl)c(O)c3)n2)cc1)c1ccc(Cl)c(C(F)(F)F)c1	0.213	0.606 µM	0.652	> 29.3 µM	2.03	6.24 µM	1.37	> 26.2 µM	0.838	3.05	1.12	12.6	4.16	> 100 µM	1.19		1.48	3.14 µM	2.82	> 46
Nc1c(C(=O)Nc2cccc3ccccc23)sc2nc3c(cc12)CCCCCC3	1.5	> 50 µM	2.38	> 50 µM	0.979	2.8 µM	0.429	> 50 µM	1.67	5.58	0.954	4.81	2.62	> 50 µM	1.65	> 50 µM	1.45	> 50 µM	2	> 50
Nc1c(S(=O)(=O)O)cc2c(c1Cl)C(=O)c1ccccc1C2=O	> 100	> 100 µM	> 100	> 100 µM	> 100	> 100 µM	> 100	> 100 µM	> 100	> 100	> 100	> 100	> 100	> 100 µM	> 100	> 100 µM	> 100	> 100 µM	> 100	> 100
O=C1/C=C/[C@@H](O)[C@@H]2C[C@@H](O)C[C@H]2/C=C/CCCCO1	0.424		1.4		0.202	0.468 µM	8.61	> 100 µM	0.338	> 100	0.607	> 100	0.749	> 100 µM	1.61		0.247	0.752 µM	0.516	> 100
COc1nc(C(Cl)(Cl)Cl)c(Cl)c(OC)c1Cl		> 55.1 µM and 71.8 µM	> 44.9	> 67.4 µM and 62.3 µM	> 43.4	> 61.1 µM and 72.6 µM	> 45.5	> 72.1 µM and 82.6 µM	> 57	96.5		71.3	> 40.8	> 59.3 µM and 59.4 µM	> 41.9	> 60.3 µM and 71.8 µM	> 49.3	> 74.8 µM and 75 µM	> 61.5	55.6
Cc1cnc2n(c1=O)Cc1ccccc1CO2	15.2	36.8 µM	18.3	39.3 µM	16.6	34.3 µM	9.11	27.9 µM	26.3	96.9	15.5	32.8	21.7	61.6 µM	15.5	35.1 µM	17.3	49 µM	23.4	82.5
Cn1cc(C2=C(c3cn(CCCN/C(N)=N\[N+](=O)[O-])c4ccccc34)C(=O)NC2=O)c2ccccc21	2	7.3 µM	2.25	> 16.4 µM	1.17	11.4 µM	0.898	3.96 µM	2.87	12.6	2.1	9.38	4.4	19 µM	1.23	7.66 µM	5.63	> 22.1 µM	3.98	> 18.5
C=CCOc1ccc2c(c1)CC[C@@H]1[C@@H]2CC[C@]2(C)C(=O)/C(=N/O)C[C@@H]12	1.98	11.8 µM	2.44	6.92 µM	7.06	25.9 µM	2.3	7.84 µM	1.81	4.68	2.71	19.2	11.4	> 55.1 µM	0.44	6.25 µM	2.33	12.2 µM	9.45	> 60.2

From PubChem BioAssay (NCI)
